In US11746139B2, “IL-7Rαγc binding compounds” (MEDIKINE, INC., priority 2020, dated 2023) one finds IC50 data, which are given here for 15 compounds.

One may read the IC50 as the concentration at which inhibition is half-maximal.

Where only a bound is given, the exact number is not on record here.

One assay concerns the target T1, Rγc subunit (Homo sapiens, UniProt P31785).
T1 construct: purchased ACRObiosystems, Inc. ILG-H5256
Put plainly: Alanine scan competition binding assay, binding to Rγc subunit. To be noted: alanine scan peptides.

The next assay has as its target IL-7Rα (Homo sapiens, UniProt P16871). Put plainly: Competition binding ELISA with bn407::NA-HRP precomplex. To be noted: bn407:NA-HRP 10 nM final; read-out: Competitive Binding ELISA bn407:NA-HRP (10 nMf) IC50 M. In general terms: In an ELISA, binding on a coated surface is turned into a signal by an enzyme label.

Sequence of IL-7Rα (P16871 21-236): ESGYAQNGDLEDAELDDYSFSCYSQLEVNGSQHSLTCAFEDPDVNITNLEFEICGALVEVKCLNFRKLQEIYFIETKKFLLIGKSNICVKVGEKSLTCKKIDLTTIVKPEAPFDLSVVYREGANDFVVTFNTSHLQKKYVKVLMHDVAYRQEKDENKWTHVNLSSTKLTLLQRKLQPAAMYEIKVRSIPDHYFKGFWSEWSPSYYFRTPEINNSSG
T1 sequence (P31785 23-254): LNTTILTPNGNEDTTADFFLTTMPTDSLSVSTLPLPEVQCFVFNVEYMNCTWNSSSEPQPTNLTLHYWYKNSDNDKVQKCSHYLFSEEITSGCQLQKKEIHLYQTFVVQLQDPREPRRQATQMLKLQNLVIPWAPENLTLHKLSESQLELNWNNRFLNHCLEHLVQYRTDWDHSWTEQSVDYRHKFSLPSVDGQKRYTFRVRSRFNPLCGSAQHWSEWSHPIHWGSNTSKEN

Take `CC(C)C[C@@H]1NC(=O)[C@H](CCC(=O)O)NC(=O)[C@H](C(C)C)NC(=O)CNC(=O)[C@H](CCC(=O)O)NC(=O)[C@H](Cc2c[nH]c3ccccc23)NC(=O)[C@H](CC(=O)O)NC(=O)[C@H](CCC(N)=O)NC(=O)[C@@H](NC(=O)[C@@H](NC(=O)[C@@H](NC(=O)CNC(=O)CN)C(C)C)C(C)C)CSSC[C@@H](C(=O)N[C@@H](Cc2c[nH]c3ccccc23)C(=O)N[C@@H](CCC(N)=O)C(=O)NCC(=O)NCC(=O)O)NC1=O` [SEQ ID NO: 1031, G G V V C Q D W E G V E L C W Q G G]: on Rγc subunit, the half-maximal inhibitory concentration (IC50) is < 50 nM.
The same measure, in the same setting: as for `CC(C)C[C@@H]1NC(=O)[C@H](C)NC(=O)[C@H](C(C)C)NC(=O)CNC(=O)[C@H](CCC(=O)O)NC(=O)[C@H](Cc2c[nH]c3ccccc23)NC(=O)[C@H](CC(=O)O)NC(=O)[C@H](CCC(N)=O)NC(=O)[C@@H](NC(=O)[C@@H](NC(=O)[C@@H](NC(=O)CNC(=O)CN)C(C)C)C(C)C)CSSC[C@@H](C(=O)N[C@@H](Cc2c[nH]c3ccccc23)C(=O)N[C@@H](CCC(N)=O)C(=O)NCC(=O)NCC(=O)O)NC1=O` [SEQ ID NO: 1038, G G V V C Q D W E G V A L C W Q G G], the figure is < 50 nM.
`CC[C@H](C)[C@H](N)C(=O)N1CCC[C@H]1C(=O)N[C@@H](Cc1c[nH]c2ccccc12)C(=O)N[C@H]1CSSC[C@@H](C(=O)N[C@@H](C)C(=O)N[C@@H](Cc2c[nH]c3ccccc23)C(=O)N[C@@H](CC(C)C)C(=O)N[C@@H](CCCNC(=N)N)C(=O)N[C@@H](C)C(=O)N[C@@H](CCSC)C(=O)NCC(=O)NCC(=O)O)NC(=O)[C@H](CCC(N)=O)NC(=O)[C@H](CC(C)C)NC(=O)CNC(=O)CNC(=O)[C@@H]2CCCN2C(=O)[C@H](CC(=O)O)NC(=O)[C@H](CC(C)C)NC(=O)[C@H]([C@@H](C)O)NC1=O` [SEQ ID NO: 431, I P W C T L D P G G L Q C A W L R A M]: on IL-7Rα, the 50% inhibitory concentration (IC50) was determined as 521 nM.
As for `CC(C)[C@@H]1NC(=O)CNC(=O)[C@H](CCC(=O)O)NC(=O)[C@H](Cc2c[nH]c3ccccc23)NC(=O)[C@H](CC(=O)O)NC(=O)[C@H](CCC(N)=O)NC(=O)[C@@H](NC(=O)[C@@H](NC(=O)[C@@H](NC(=O)CNC(=O)CN)C(C)C)C(C)C)CSSC[C@@H](C(=O)N[C@@H](Cc2c[nH]c3ccccc23)C(=O)N[C@@H](CCC(N)=O)C(=O)NCC(=O)NCC(=O)O)NC(=O)[C@H](C)NC(=O)[C@H](CCC(=O)O)NC1=O` [SEQ ID NO: 1039, G G V V C Q D W E G V E A C W Q G G], at Rγc subunit, the IC50 was < 5000 nM.
For `CC[C@H](C)[C@H](N)C(=O)N1CCC[C@H]1C(=O)N[C@@H](Cc1c[nH]c2ccccc12)C(=O)N[C@H]1CSSC[C@@H](C(=O)N[C@@H](C)C(=O)N[C@@H](Cc2c[nH]c3ccccc23)C(=O)N[C@@H](C)C(=O)N[C@@H](CCCNC(=N)N)C(=O)N[C@@H](CCC(N)=O)C(=O)N[C@@H](CCSC)C(=O)NCC(=O)NCC(=O)O)NC(=O)[C@H](CCC(N)=O)NC(=O)[C@H](CC(C)C)NC(=O)CNC(=O)CNC(=O)[C@@H]2CCCN2C(=O)[C@H](CC(=O)O)NC(=O)[C@H](CC(C)C)NC(=O)[C@H]([C@@H](C)O)NC1=O` [SEQ ID NO: 425, I P W C T L D P G G L Q C A W A R Q M], the concentration for half-maximal inhibition (IC50) at IL-7Rα worked out at 1850 nM.
Turning to `CC(C)C[C@@H]1NC(=O)[C@H](CCC(=O)O)NC(=O)[C@H](C)NC(=O)CNC(=O)[C@H](CCC(=O)O)NC(=O)[C@H](Cc2c[nH]c3ccccc23)NC(=O)[C@H](CC(=O)O)NC(=O)[C@H](CCC(N)=O)NC(=O)[C@@H](NC(=O)[C@@H](NC(=O)[C@@H](NC(=O)CNC(=O)CN)C(C)C)C(C)C)CSSC[C@@H](C(=O)N[C@@H](Cc2c[nH]c3ccccc23)C(=O)N[C@@H](CCC(N)=O)C(=O)NCC(=O)NCC(=O)O)NC1=O` [SEQ ID NO: 1037, G G V V C Q D W E G A E L C W Q G G], on Rγc subunit, the IC50 is < 2000 nM.
As for `CC[C@H](C)[C@H](N)C(=O)N1CCC[C@H]1C(=O)N[C@@H](Cc1c[nH]c2ccccc12)C(=O)N[C@H]1CSSC[C@@H](C(=O)N[C@@H](C)C(=O)N[C@@H](C)C(=O)N[C@@H](CC(C)C)C(=O)N[C@@H](CCCNC(=N)N)C(=O)N[C@@H](CCC(N)=O)C(=O)N[C@@H](CCSC)C(=O)NCC(=O)NCC(=O)O)NC(=O)[C@H](CCC(N)=O)NC(=O)[C@H](CC(C)C)NC(=O)CNC(=O)CNC(=O)[C@@H]2CCCN2C(=O)[C@H](CC(=O)O)NC(=O)[C@H](CC(C)C)NC(=O)[C@H]([C@@H](C)O)NC1=O` [SEQ ID NO: 421, I P W C T L D P G G L Q C A A L R Q M], the IC50 on IL-7Rα is 7580 nM.
With `CC(C)C[C@@H]1NC(=O)[C@H](CCC(=O)O)NC(=O)[C@H](C(C)C)NC(=O)CNC(=O)[C@H](C)NC(=O)[C@H](Cc2c[nH]c3ccccc23)NC(=O)[C@H](CC(=O)O)NC(=O)[C@H](CCC(N)=O)NC(=O)[C@@H](NC(=O)[C@@H](NC(=O)[C@@H](NC(=O)CNC(=O)CN)C(C)C)C(C)C)CSSC[C@@H](C(=O)N[C@@H](Cc2c[nH]c3ccccc23)C(=O)N[C@@H](CCC(N)=O)C(=O)NCC(=O)NCC(=O)O)NC1=O` [SEQ ID NO: 1035, G G V V C Q D W A G V E L C W Q G G], at Rγc subunit, the 50% inhibitory concentration (IC50) was < 50 nM.
With `CC[C@H](C)[C@H](N)C(=O)N1CCC[C@H]1C(=O)N[C@@H](Cc1c[nH]c2ccccc12)C(=O)N[C@H]1CSSC[C@@H](C(=O)N[C@@H](C)C(=O)N[C@@H](Cc2c[nH]cn2)C(=O)N[C@@H](CC(C)C)C(=O)N[C@@H](CCCNC(=N)N)C(=O)N[C@@H](CCC(N)=O)C(=O)N[C@@H](CCSC)C(=O)NCC(=O)NCC(=O)O)NC(=O)[C@H](CCC(N)=O)NC(=O)[C@H](CC(C)C)NC(=O)CNC(=O)CNC(=O)[C@@H]2CCCN2C(=O)[C@H](CC(=O)O)NC(=O)[C@H](CC(C)C)NC(=O)[C@H]([C@@H](C)O)NC1=O` [SEQ ID NO: 424, I P W C T L D P G G L Q C A H L R Q M], the IC50 at IL-7Rα was found to be 1520 nM.
The same measure, in the same setting: for `CC[C@H](C)[C@H](N)C(=O)N1CCC[C@H]1C(=O)N[C@@H](Cc1c[nH]c2ccccc12)C(=O)N[C@H]1CSSC[C@@H](C(=O)N[C@@H](C)C(=O)N[C@@H](Cc2c[nH]c3ccccc23)C(=O)N[C@@H](CC(C)C)C(=O)N[C@@H](CCCNC(=N)N)C(=O)N[C@@H](CCC(N)=O)C(=O)N[C@@H](CCSC)C(=O)NCC(=O)NCC(=O)O)NC(=O)[C@H](CCC(N)=O)NC(=O)[C@H](CC(C)C)NC(=O)CNC(=O)CNC(=O)[C@@H]2CCCN2C(=O)[C@H](CC(=O)O)NC(=O)[C@H](CC(C)C)NC(=O)[C@H]([C@@H](C)O)NC1=O` [SEQ ID NO: 420, I P W C T L D P G G L Q C A W L R Q M] the value was 705 nM.
Same read-out and setting: for `CC[C@H](C)[C@H](N)C(=O)N1CCC[C@H]1C(=O)N[C@@H](Cc1c[nH]c2ccccc12)C(=O)N[C@H]1CSSC[C@@H](C(=O)N[C@@H](C)C(=O)N[C@@H](Cc2c[nH]c3ccccc23)C(=O)N[C@@H](CC(C)C)C(=O)N[C@@H](CCCNC(=N)N)C(=O)N[C@@H](C)C(=O)N[C@@H](C)C(=O)NCC(=O)NCC(=O)O)NC(=O)[C@H](CCC(N)=O)NC(=O)[C@H](CC(C)C)NC(=O)CNC(=O)CNC(=O)[C@@H]2CCCN2C(=O)[C@H](CC(=O)O)NC(=O)[C@H](CC(C)C)NC(=O)[C@H]([C@@H](C)O)NC1=O` [SEQ ID NO: 433, I P W C T L D P G G L Q C A W L R A A] the value was 1070 nM.
The same measure, in the same setting: for `CC[C@H](C)[C@H](N)C(=O)N1CCC[C@H]1C(=O)N[C@@H](Cc1c[nH]c2ccccc12)C(=O)N[C@H]1CSSC[C@@H](C(=O)N[C@@H](C)C(=O)N[C@@H](Cc2c[nH]c3ccccc23)C(=O)N[C@H](C(=O)N[C@@H](CCCNC(=N)N)C(=O)N[C@@H](CCC(N)=O)C(=O)N[C@@H](CCSC)C(=O)NCC(=O)NCC(=O)O)C(C)C)NC(=O)[C@H](CCC(N)=O)NC(=O)[C@H](CC(C)C)NC(=O)CNC(=O)CNC(=O)[C@@H]2CCCN2C(=O)[C@H](CC(=O)O)NC(=O)[C@H](CC(C)C)NC(=O)[C@H]([C@@H](C)O)NC1=O` [SEQ ID NO: 427, I P W C T L D P G G L Q C A W V R Q M] the value was 411 nM; for `CC[C@H](C)[C@H](N)C(=O)N1CCC[C@H]1C(=O)N[C@@H](Cc1c[nH]c2ccccc12)C(=O)N[C@H]1CSSC[C@@H](C(=O)N[C@@H](C)C(=O)N[C@@H](Cc2ccc(O)cc2)C(=O)N[C@@H](CC(C)C)C(=O)N[C@@H](CCCNC(=N)N)C(=O)N[C@@H](CCC(N)=O)C(=O)N[C@@H](CCSC)C(=O)NCC(=O)NCC(=O)O)NC(=O)[C@H](CCC(N)=O)NC(=O)[C@H](CC(C)C)NC(=O)CNC(=O)CNC(=O)[C@@H]2CCCN2C(=O)[C@H](CC(=O)O)NC(=O)[C@H](CC(C)C)NC(=O)[C@H]([C@@H](C)O)NC1=O` [SEQ ID NO: 423, I P W C T L D P G G L Q C A Y L R Q M], 664 nM; for `CC[C@H](C)[C@H](N)C(=O)N1CCC[C@H]1C(=O)N[C@@H](Cc1c[nH]c2ccccc12)C(=O)N[C@H]1CSSC[C@@H](C(=O)N[C@@H](C)C(=O)N[C@@H](Cc2c[nH]c3ccccc23)C(=O)N[C@H](C(=O)N[C@@H](CCCNC(=N)N)C(=O)N[C@@H](CCC(N)=O)C(=O)N[C@@H](CCSC)C(=O)NCC(=O)NCC(=O)O)[C@@H](C)CC)NC(=O)[C@H](CCC(N)=O)NC(=O)[C@H](CC(C)C)NC(=O)CNC(=O)CNC(=O)[C@@H]2CCCN2C(=O)[C@H](CC(=O)O)NC(=O)[C@H](CC(C)C)NC(=O)[C@H]([C@@H](C)O)NC1=O` [SEQ ID NO: 426, I P W C T L D P G G L Q C A W I R Q M], 378 nM.
With `CC[C@H](C)[C@H](N)C(=O)N1CCC[C@H]1C(=O)N[C@@H](Cc1c[nH]c2ccccc12)C(=O)N[C@H]1CSSC[C@@H](C(=O)N[C@@H](C)C(=O)N[C@@H](Cc2c[nH]c3ccccc23)C(=O)N[C@@H](CC(C)C)C(=O)N[C@@H](C)C(=O)N[C@@H](C)C(=O)N[C@@H](C)C(=O)NCC(=O)NCC(=O)O)NC(=O)[C@H](CCC(N)=O)NC(=O)[C@H](CC(C)C)NC(=O)CNC(=O)CNC(=O)[C@@H]2CCCN2C(=O)[C@H](CC(=O)O)NC(=O)[C@H](CC(C)C)NC(=O)[C@H]([C@@H](C)O)NC1=O` [SEQ ID NO: 434, I P W C T L D P G G L Q C A W L A A A], the half-maximal inhibitory concentration (IC50) at IL-7Rα was found to be 602 nM.
